Reference: PubChem BioAssay (NCI)
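In this assay, cells in 96-well plates receive the compound at five concentrations for 48 hours. Endpoints are linearly interpolated between the surrounding concentrations. The concentration for full growth arrest is given as TGI.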

Experiments:
Assay in all cases: inhibition of tumour cell growth, NCI panel, 48 h
[1] = test system: SN12C renal
[2] = test system: K-562 leukemia
[3] = test system: SNB-75 CNS
[4] = test system: PC-3 prostate
[5] = test system: HOP-92 NSCLC
[6] = test system: HOP-62 NSCLC
[7] = test system: SK-MEL-5 melanoma
[8] = test system: HCC-2998 colon
[9] = test system: SW-620 colon
[10] = test system: OVCAR-4 ovarian
[11] = test system: MDA-N
[12] = test system: ACHN renal
[13] = test system: SK-OV-3 ovarian
[14] = test system: UACC-257 melanoma
[15] = test system: OVCAR-8 ovarian
[16] = test system: UACC-62 melanoma
[17] = test system: SK-MEL-2 melanoma
[18] = test system: SF-295 CNS
[19] = test system: U251 CNS
[20] = test system: NCI-H23 lung
[21] = test system: M14 melanoma
[22] = test system: BT-549 breast
[23] = test system: OVCAR-5 ovarian
[24] = test system: TK-10 renal
[25] = test system: KM12 colon
[26] = test system: HCT-15 colon
[27] = test system: OVCAR-3 ovarian
[28] = test system: UO-31 renal
[29] = test system: SF-539 CNS
[30] = test system: EKVX NSCLC
[31] = test system: MDA-MB-435
[32] = test system: IGROV1 ovarian
[33] = test system: SNB-19 CNS
[34] = test system: A549 NSCLC
[35] = test system: NCI/ADR-RES ovarian
[36] = test system: SR leukemia
[37] = test system: MDA-MB-231 breast
[38] = test system: COLO 205 colon
[39] = test system: DU-145 prostate
[40] = test system: RXF 393 renal
[41] = test system: LOX IMVI melanoma
[42] = test system: MOLT-4 leukemia
[43] = test system: HCT-116 colon
[44] = test system: MCF7 breast
[45] = test system: NCI-H522 lung
[46] = test system: 786-0 renal
[47] = test system: RPMI-8226 leukemia
[48] = test system: SF-268 CNS
[49] = test system: HT29 colon
[50] = test system: CCRF-CEM leukemia
[51] = test system: SK-MEL-28 melanoma
[52] = test system: HS 578T breast
[53] = test system: NCI-H226 lung
[54] = test system: MALME-3M melanoma
[55] = test system: NCI-H460 lung
[56] = test system: CAKI-1 renal

Measured: TGI

CCOC(=O)N/N=C(\Cc1ccc([N+](=O)[O-])cc1)OCC
not listed: [51] | [52] | [53] | [54] | [55] | [56]
> 100 µM: all other assays above

COC(=O)c1ccc(COC(=O)N2C=CCC2C(=O)O)cc1 (stereo unspecified)
not listed: [10] | [30] | [41] | [43] | [50]
> 100 µM: all other assays above
